Each block holds one molecule with its values, some of them ahead of it.
Columns and labels:
[1] = molecular target: purified recombinant COX-1 enzyme (Homo sapiens, UniProt P23219); test: COX-1 enzyme based assay; assay type: biochemical; details: Conc. 10 μM
Description: (§1) COX-1 and COX-2 Enzyme Based Assay
(§2) COX-2 enzyme based assays were carried out to check the inhibitory potential of test compounds on the production of prostaglandin by purified recombinant COX-1/COX-2 enzyme (Proc. Nat. Acad. Sci. USA, 88, 2692-2696, 1991; Clin. Immunoassay 15, 116-120, 1992) In this assay, the potential of the test compound to inhibit the production of prostaglandin either by COX-1 or COX-2 from arachidonic acid (substrate) was measured. This was an enzyme based in-vitro assay to evaluate selective COX inhibition with good reproducibility.
(§3) Arachidonic acid was converted to PGH2 (Intermediate product) by COX1/COX-2 in presence or absence of the test compound. The reaction was carried out at 37° C. and after 2 minutes it was stopped by adding 1M HCl. Intermediate products PGH2 was converted to a stable Prostanoid product PGF2α by SnCl2 reduction. The amount of PGF2α produced in the reaction was inversely proportional to the COX inhibitory potential of the test compound. The prostanoid product was quantified via enzyme immunoassay (EIA) using a broadly specific antibody that binds to all the major forms of Prostaglandin, using Cayman ELISA kit as per the procedure outlined by the manufacturer Cayman Chemicals, Ann Arbor, USA).

[2] = molecular target: T1, purified recombinant COX-2 enzyme (Homo sapiens, UniProt P35354); test: COX-2 enzyme based assay; assay type: biochemical; details: Conc. 10 μM
T1 sequence (P35354 18-604): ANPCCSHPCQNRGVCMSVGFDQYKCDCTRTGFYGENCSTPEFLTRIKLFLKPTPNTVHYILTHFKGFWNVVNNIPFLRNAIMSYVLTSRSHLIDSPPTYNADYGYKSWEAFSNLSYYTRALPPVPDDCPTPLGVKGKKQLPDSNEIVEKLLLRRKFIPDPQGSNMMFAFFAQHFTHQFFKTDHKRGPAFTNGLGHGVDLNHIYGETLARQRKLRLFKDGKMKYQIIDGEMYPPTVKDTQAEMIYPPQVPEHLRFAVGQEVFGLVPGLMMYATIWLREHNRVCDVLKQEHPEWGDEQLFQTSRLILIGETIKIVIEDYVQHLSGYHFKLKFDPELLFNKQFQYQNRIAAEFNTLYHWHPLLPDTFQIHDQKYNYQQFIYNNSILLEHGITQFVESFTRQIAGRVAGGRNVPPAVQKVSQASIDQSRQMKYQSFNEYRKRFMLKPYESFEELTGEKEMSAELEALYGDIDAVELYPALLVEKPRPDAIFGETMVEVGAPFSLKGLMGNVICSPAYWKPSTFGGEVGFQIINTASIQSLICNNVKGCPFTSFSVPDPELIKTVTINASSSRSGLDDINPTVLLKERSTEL
Description: as §1, §2, §3

TNF-α [3] = test: In vitro measurement of TNF-α in human PBMC; assay type: cell-based; details: LPS; for IC50: TNF-α inhibition
Description: In Vitro Measurement of Tumor Necrosis Factor Alpha (TNF-α)
This assay determines the effect of test compounds on the production of TNF-α in human Peripheral Blood Mononuclear Cells (PBMC). Compounds were tested for their ability to inhibit the activity of TNF-α in human PBMC. PBMC were isolated from blood (from healthy volunteers) using BD Vacutainer CPT™ (Cell preparation tube, BD Bio Science) and suspended in RPMI medium (Physiol. Res. 52; 593-598, 2003). The test compounds were pre-incubated with PBMC (0.5 million/incubation well) for 15 minutes at 37° C. and then stimulated with Lipopolysaccharide (Escherichia coli: B4; 1 μg/ml) for 18 hours at 37° C. in 5% CO2. The levels of TNF-α in the cell culture medium were estimated using enzyme linked Immunosorbent assay performed in a 96 well format as per the procedure of the manufacturer (R&D Systems, Inc. 614 McKinley Place Nebr., Minneapolis, Minn. 55413, USA).

TNF-α [4] = test: LPS induced sepsis for measurement of TNF-α inhibition in mice; assay type: in vivo; details: 50 mg/kg bw oral; female Swiss albino mice; serum 90 minutes after LPS
Description: LPS Induced Sepsis for Measurement of TNF-α Inhibition in Mice
The LPS induced sepsis model in mice was performed as described by Les sekut et al (J Lab Clin Med 1994; 124:813-20). Female Swiss albino mice were selected with their body weights being equivalent within each group. The mice were fasted for 20 hours with free access to water. The mice were dosed orally with the test compound suspended in vehicle containing 0.5% Tween 80 in 0.25% Carboxy-methylcellulose sodium salt. The control mice were administered the vehicle alone. After 30 minutes of oral dosing, the mice were injected with 500 μg of Lipopolysaccharide (Escherichia coli, LPS: B4 from Sigma) in phosphate buffer saline solution into the intraperitoneal cavity of the mice. After 90 minutes of LPS administration, the mice were bled via retro-orbital sinus puncture. Blood samples were stored overnight at 4° C. Serum samples were collected by centrifuging the samples at 4000 rpm for 15 minutes at 4° C. Immediately the serum samples were analysed for TNF-α levels, using commercially available mouse TNF-α ELISA kit (Amersham Biosciences) and assay was performed by the manufacturer instruction.

NCI-H460 = test: Anti-cancer screen (MTT), NCI-H460; assay type: cell-based
Description: (§4) Experimental drugs are screened for anti-cancer activity in three cell lines for their GI50, TGI and LC50 values (using five concentrations for each compound). The cell lines are maintained in DMEM containing 10% fetal bovine serum. 96 well microtiter plates are inoculated with cells in 100 μL for 24 h at 37° C., 5% CO2, 95% air and 100% relative humidity. 5000 HCT116 cells/well, 5000 NCIH460 cells/well, 10000 U251 cells/well and 5000 MDAMB231 cells/well are plated. A separate plate with these cell lines is also inoculated to determine cell viability before the addition of the compounds (T0).
Following 24 hours incubation, experimental drugs are added to the 96 well plates. […] Compounds are dissolved in dimethylsulfoxide (DMSO) to make 20 mM stock solutions on the day of drug addition and frozen at −20° C. […] Standard drugs whose anti-cancer activity has been well documented and which are regularly used are doxorubicin and SAHA.
(§5) Cells are incubated with compounds for 48 hours followed by the addition of 10 μL 3-(4,5-Dimethyl-2-thiazolyl)-2,5-diphenyl-2H-tetrazolium (MTT) solution per well and a subsequent incubation at 37° C., 5% CO2, 95% air and 100% relative humidity, protected from light. After 4 hours, well contents are aspirated carefully followed by addition of 150 μL DMSO per well. Plates are agitated to ensure solution of the formazan crystals in dimethylsulphoxide and absorbance read at 570 nm.
Percent growth is calculated for each compound's concentration relative to the control and zero measurement wells (To; viability right before compound addition). If a test well's O.D. value is greater than the To measurement for that cell line % Growth=(test−zero)/(control−zero)×100
If a test well's O.D. value is lower than the T0 measurement for that cell line, […]

MCF-7 = test: Anti-cancer screen (MTT), MCF-7; assay type: cell-based; details: Conc. 100 μM
Description: [The source words this procedure for another cell line and reports this cell line under the same test.] as §4
(§6) Following 24 hours incubation, experimental drugs are added to the 96 well plates. Each plate contains one of the above cell lines and the following in triplicate: five different concentrations (0.01, 0.1, 1, 10 and 100 μM) of four different compounds, appropriate dilutions of a cytotoxic standard and control (untreated) wells. Compounds are dissolved in dimethylsulfoxide (DMSO) to make 20 mM stock solutions on the day of drug addition and frozen at −20° C. Serial dilutions of these 20 mM stock solutions are made in complete growth medium such that 100 μL of these drug solutions in medium, of final concentrations equaling 0.01, 0.1, 1, 10 and 100 μM can be added to the cells in triplicate. Standard drugs whose anti-cancer activity has been well documented and which are regularly used are doxorubicin and SAHA.
as §5
(§7) Percent growth is calculated for each compound's concentration relative to the control and zero measurement wells (To; viability right before compound addition). […]

SF-268 = test: Anti-cancer screen (MTT), SF-268; assay type: cell-based; details: Conc. 100 μM
Description: [The source words this procedure for another cell line and reports this cell line under the same test.] as §4, §6, §5, §7

COX-2 = molecular target: T2, COX-2 (Homo sapiens, UniProt P35354); test: Human whole blood assay, COX-2 inhibition (PGE2 after LPS); assay type: cell-based; details: LPS stimulated; for inhibition at 0.25 µM: Conc. 0.25 μM
T2 construct: Fresh blood was collected in tubes containing sodium heparin by vein puncture from healthy male volunteers; endogenous in cells; host or cells: human whole blood from healthy male volunteers, stimulated with LPS
T2 sequence (P35354 18-604): T1 sequence (P35354 18-604)
Description: Human whole blood provides a protein and cell rich milieu appropriate for the study of biochemical efficacy of anti-inflammatory compounds such as selective COX-2 inhibitors. […] This is correlating with the observation that COX-2 inhibitors have no effect on prostaglandin E2 (PGE2) production in normal blood. These inhibitors were active only after incubation of human blood with lipopolysaccharide (LPS), which induces COX-2 production in the blood.
Fresh blood was collected in tubes containing sodium heparin by vein puncture from healthy male volunteers. […] Then test compounds (at various concentrations) or vehicle were added to blood. After that blood was stimulated with LPS B: 4 (10 μg/ml) and incubated for another 18 hours at 37° C. water bath. After which the blood was centrifuged, plasma was separated and stored at −80° C. (J. Pharmacol. Exp. Ther, 271, 1705, 1994; Proc. Natl. Acad. Sci. USA., 96, 7563, 1999). The plasma was assayed for PGE2 using Cayman ELISA kit as per the procedure outlined by the manufacturer (Cayman Chemicals, Ann Arbor, USA).

IL-6 = test: In vitro measurement of IL-6 in human PBMC; assay type: cell-based; details: Conc. 0.1 μM, LPS
Description: (§8) In vitro Measurement of Interleukin-6 (IL-6) & Interleukin-1β (IL1β)
(§9) This assay determines the effect of test compounds on the production of IL-6 and IL1β in human PBMC (Physiol. Res. 52: 593-598, 2003). Compounds were tested for their ability to inhibit the activity of IL-6 and IL1β in human PBMC. PBMC were isolated from blood using BD Vacutainer CPT™ Cell preparation tube (BD Bio Science) and suspended in RPMI medium. The test compounds were preincubated with PBMC (0.5 million/incubation well) for 15 minutes at 37° C. and then stimulated with Lipopolysaccharide (Escherichia coli: B4; 1 μg/ml) for 18 hours at 37° C. in 5% CO2. The levels of IL-6 and IL1β in cell culture medium were estimated using enzyme linked Immunosorbent assay performed in a 96 well format as per the procedure of the manufacturer (R&D Systems, Inc. 614 McKinley Place Nebr., Minneapolis, Minn. 55413, USA).

IL-1β = test: In vitro measurement of IL-1β in human PBMC; assay type: cell-based; details: Conc. 0.1 μM, LPS
Description: as §8, §9

Chain of purified recombinant COX-1 enzyme (P23219 24-599): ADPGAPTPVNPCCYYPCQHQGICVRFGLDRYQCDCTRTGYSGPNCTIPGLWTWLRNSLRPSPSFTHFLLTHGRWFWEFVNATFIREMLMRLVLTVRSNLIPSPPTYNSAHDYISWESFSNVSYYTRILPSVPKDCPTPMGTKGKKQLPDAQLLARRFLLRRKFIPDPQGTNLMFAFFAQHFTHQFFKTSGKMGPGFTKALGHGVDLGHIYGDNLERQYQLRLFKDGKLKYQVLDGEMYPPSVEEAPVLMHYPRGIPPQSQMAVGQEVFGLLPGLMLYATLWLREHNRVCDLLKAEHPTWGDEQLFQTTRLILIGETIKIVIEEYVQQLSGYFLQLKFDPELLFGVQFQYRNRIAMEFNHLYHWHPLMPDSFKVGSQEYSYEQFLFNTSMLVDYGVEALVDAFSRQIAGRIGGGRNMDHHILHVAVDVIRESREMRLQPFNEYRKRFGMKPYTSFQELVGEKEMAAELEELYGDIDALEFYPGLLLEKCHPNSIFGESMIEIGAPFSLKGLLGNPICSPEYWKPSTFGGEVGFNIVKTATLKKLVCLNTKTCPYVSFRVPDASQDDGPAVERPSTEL

SMILES: CCc1ccc(NC(=O)c2c(NC)nc(-c3ccc(SC)cc3)nc2SC)cc1 [Example 8, N-(4-Ethylphenyl)-4-(methylamino)-6-(methylthio)-2-[4-(methylthio)phenyl]pyrimidine-5-carboxamide]
inhibition at 0.1 µM (TNF-α [3]): 27.8% | Percentage growth Lung NCI-H460 (NCI-H460; Conc. 100 μM): 0% | Percentage growth Breast MCF-7 (MCF-7): 4% | Percentage growth CNS SF-268 (SF-268): 1%

SMILES: CNc1nc(-c2ccc(S(N)(=O)=O)cc2)nc(SC)c1C(=O)Nc1ccc(C)cc1 [Example 12, 2-[4-(Aminosulfonyl)phenyl]-4-(methylamino)-N-(4-methylphenyl)-6-(methylthio)pyrimidine-5-carboxamide]
inhibition at 0.25 µM (COX-2): 24.9%

SMILES: CSc1nc(-c2ccncc2)nc(NCCO)c1C(=O)Nc1ccc(C)cc1 [Example 35, 4-[(2-Hydroxyethyl)amino]-N-(4-methylphenyl)-6-(methylthio)-2-pyridin-4-ylpyrimidine-5-carboxamide]
inhibition at 10 µM [1]: 15.2% | inhibition at 10 µM [2]: 26.8% | IC50 (TNF-α [3]): 1800 nM | inhibition at 1 µM (TNF-α [3]): 52.7% | TNF-α Inhibition (%) at 50 mg/kg bw (TNF-α [4]): 59.94% | GI50 (NCI-H460; Homo sapiens, NCI-H460, 48 hours, MTT): 9000 nM

SMILES: CSc1nc(-c2ccncc2)nc(NCCO)c1C(=O)Nc1ccc(C)c(C)c1 [Example 37, N-(3,4-Dimethylphenyl)-4-[(2-hydroxyethyl)amino]-6-(methylthio)-2-pyridin-4-ylpyrimidine-5-carboxamide]
inhibition at 10 µM [1]: 6.58% | inhibition at 10 µM [2]: 17.1% | IC50 (TNF-α [3]): 1500 nM | inhibition at 1 µM (TNF-α [3]): 42.7% | TNF-α Inhibition (%) at 50 mg/kg bw (TNF-α [4]): 66.65%

Second part, led by results:

inhibition at 10 µM [1]: 28.8% | inhibition at 10 µM [2]: 19.3% | IC50 (TNF-α [3]): 860 nM | melting point: 184 to 197 °C
SMILES: CNc1nc(-c2cccnc2)nc(SC)c1C(=O)Nc1ccc(OC)cc1 [Example 6, N-(4-Methoxyphenyl)-4-(methylamino)-6-(methylthio)-2-pyridin-3-ylpyrimidine-5-carboxamide]
inhibition at 0.1 µM (TNF-α [3]): 30.3% | TNF-α Inhibition (%) at 50 mg/kg bw (TNF-α [4]): 77.0%

inhibition at 10 µM (COX-2; Conc. 10 μM): 24.2%
SMILES: CNc1nc(-c2ccc(S(N)(=O)=O)cc2)nc(NC)c1C(=O)Nc1ccc(C)c(C)c1 [Example 10, 2-[4-(Aminosulfonyl)phenyl]-4,6-bis(methylamino)-N-(3,4-dimethylphenyl)pyrimidine-5-carboxamide]

inhibition at 0.25 µM (COX-2): 24.5%
SMILES: CNc1nc(-c2ccc(S(N)(=O)=O)cc2)nc(NC)c1C(=O)Nc1ccc(C)cc1 [Example 13, 2-[4-(Aminosulfonyl)phenyl]-4,6-bis(methylamino)-N-(4-methylphenyl)pyrimidine-5-carboxamide]
inhibition at 0.1 µM (IL-6): 21.5% | IL-1β Inhibition (%) (IL-1β): Not active

inhibition at 10 µM [1]: 25.5% | inhibition at 10 µM [2]: 23.2% | IC50 (TNF-α [3]): 900 nM
SMILES: CNc1nc(-c2cccnc2)nc(NC)c1C(=O)Nc1ccc(OC)cc1 [Example 28, N-(4-Methoxyphenyl)-4,6-bis(methylamino)-2-pyridin-3-ylpyrimidine-5-carboxamide]
inhibition at 1 µM (TNF-α [3]): 45.1% | TNF-α Inhibition (%) at 50 mg/kg bw (TNF-α [4]): 81.5%
